Target: hDGAT2 (Homo sapiens (Human), UniProt Q96PD7)
Assay: DGAT2 Enzymatic Activity Assay (triolein formation, LC/MS/MS)
Type: biochemical
Settings: Sf-9 membrane prep expressing hDGAT2; 25 μM diolein, 10 μM oleoyl-CoA; room temperature; read-out: IC50 values for inhibition of DGAT2
Method: In Vitro DGAT2 ASSAYS and Determination of IC50 Values for DGAT2 Inhibitors
Insect Cell Expression and Membrane Preparation
Sf-9 insect cells were maintained in Grace's insect cell culture medium with 10% heated-inactivated fetal bovine serum, 1% Pluronic F-68 and 0.14 μg/ml Kanamycine sulfate in Erlenmeyer flasks at 28° C. in a shaker incubator. After infection with untagged hDGAT2 baculovirus at multiplicity of infection (MOI) 0.1 for 48 hours, cells were harvested. Cell pellets were suspended in buffer containing 10 mM Tris-HCl (pH 7.5), 1 mM EDTA (pH 8.0), 250 mM sucrose and Complete Protease Inhibitor Cocktail (Roche Diagnostics Corp., Indianapolis, Ill.), and sonicated on ice. Membrane fractions were isolated by ultracentrifugation (100,000× g pellet), resuspended in the same buffer, and frozen (−80° C.) for later use. The protein concentration was determined with the BCA Protein Assay kit (Pierce Biotechnology Inc., Rockford, Ill.). Expression of protein levels was analyzed by immunoblotting with goat polyclonal DGAT2 antibody C-15 and donkey anti-goat IgG HRP (Santa Cruz Biotechnology, Inc., Santa Cruz, Calif.) followed by detection with ECL reagent (GE Healthcare, Piscataway, N.J.).
LC/MS/MS analyses were performed using Thermal Fisher's LX4-TSQ Vantage system. This system consists of an Agilent binary high-performance liquid chromatography (HPLC) pumps and a TSQ Vantage triple quadrupole MS/MS instrument. For each sample, 2 μL samples from the top organic layer of in-plate liquid-liquid extraction were injected onto a Thermo Betabasic C4 column (2.1 mm×20 mm, 5 μm particle size). The samples were then eluted using the following conditions; mobile phase: methanol/water with 0.1% ammonium format=92/8 (v/v), flow rate: 1 mL/min, temperature: 25° C. Data was acquired in positive mode using a heated electrospray ionization (HESI) interface. The operational parameters for the TSQ Vantage MS/MS instrument were a spray voltage of 3000 V, capillary temperature of 280° C., vaporizer temperature 400° C., shealth gas 60 arbitrary unit, Aux gas 40 arbitrary units, S-lens 113 and collision gas 0.16 Pascals. […] (SRM) chromatograms of triolein (Q1: 902.9>Q3:602.3) and internal standard (Q1: 902.9>Q3:602.3) were collected for 40 sec. The peak area was integrated by Xcalibur Quan software. The ratio between the triolein generated in the reaction and spiked in internal standard were used to generate percentage inhibition and IC50 values. Compound percentage inhibition was calculated by the following formula: Inhibition %=1−[(compound response−low control)/(high control−low control)]×100%. Potent compounds were titrated and IC50 were calculated by 4 parameter sigmoidal curve fitting formula.
DGAT2 Enzymatic Activity Assay
DGAT2 activity was determined by measuring the amount of enzymatic product triolein (1,2,3-Tri(cis-9-octadecenoyl)glycerol) using the membrane prep mentioned above. The assay was carried out in deep well 384 plates in a final volume of 40 μL at room temperature. The assay mixture contained the following: assay buffer (100 mM Tris·Cl, pH 7.0, 20 mM MgCl2, 5% ethanol), 25 μM of diolein, 10 μM of oleoyl-CoA and 10 ng/μL of DGAT2 membrane.

Sequence of hDGAT2 (Q96PD7 whole entry): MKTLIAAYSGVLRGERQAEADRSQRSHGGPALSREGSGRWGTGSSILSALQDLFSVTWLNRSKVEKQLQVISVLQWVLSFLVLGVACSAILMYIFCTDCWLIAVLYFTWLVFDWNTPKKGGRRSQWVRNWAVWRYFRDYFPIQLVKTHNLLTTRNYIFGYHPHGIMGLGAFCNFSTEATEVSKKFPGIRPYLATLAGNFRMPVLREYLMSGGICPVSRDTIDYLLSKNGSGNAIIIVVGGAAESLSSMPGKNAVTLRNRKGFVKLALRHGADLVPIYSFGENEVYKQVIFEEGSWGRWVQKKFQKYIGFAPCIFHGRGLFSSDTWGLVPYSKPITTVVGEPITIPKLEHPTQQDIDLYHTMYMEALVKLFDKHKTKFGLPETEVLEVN

| SMILES | IC50 [nM] |
| --- | --- |
| Cn1c(CCNC(=O)c2ccc(-c3cccc(C(F)(F)F)c3)c3c2CN(C(=O)NC(C)(C)C)CC3)nc2ccccc21 [Example 20, N^2-(tert-butyl)-N^8-(2-(1-methyl-1H-benzo[d]imidazol-2-yl)ethyl)-5-(3-(trifluoromethyl)phenyl)-3,4-dihydroisoquinoline-2,8(1H)-dicarboxamide] | 205 |
| CC(C)(C)NC(=O)N1CCc2c(-c3cccc(OC(F)(F)F)c3)ccc(C(=O)NCc3nccc4ccccc34)c2C1 [Example 22, N^2-(tert-butyl)-N^8-(isoquinolin-1-ylmethyl)-5-(3-(trifluoromethoxy)phenyl)-3,4-dihydroisoquinoline-2,8(1H)-dicarboxamide] | 235 |
| CC(C)(C)NC(=O)N1CCc2c(-c3cccc(C(F)(F)F)c3)ccc(C(=O)NCCc3cn4ccccc4n3)c2C1 [Example 23, N^2-(tert-butyl)-N^8-(2-(imidazo[1,2-a]pyridin-2-yl)ethyl)-5-(3-(trifluoromethyl)phenyl)-3,4-dihydroisoquinoline-2,8(1H)-dicarboxamide] | 244 |
| CC(C)(C)NC(=O)N1CCc2c(-c3cccc(C(F)(F)F)c3)ccc(C(=O)NCc3nccc4cccnc34)c2C1 [Example 24, N^8-((1,7-naphthyridin-8-yl)methyl)-N^2-(tert-butyl)-5-(3-(trifluoromethyl)phenyl)-3,4-dihydroisoquinoline-2,8(1H)-dicarboxamide] | 265 |
| Cc1nn2cc(CCNC(=O)c3ccc(-c4cccc(C(F)(F)F)c4)c4c3CN(C(=O)NC(C)(C)C)CC4)nc2s1 [Example 25, N^2-(tert-butyl)-N^8-(2-(2-methylimidazo[2,1-b][1,3,4]thiadiazol-6-yl)ethyl)-5-(3-(trifluoromethyl)phenyl)-3,4-dihydroisoquinoline-2,8(1H)-dicarboxamide] | 271 |
| CC(C)(C)NC(=O)N1CCc2c(-c3cccc(C(F)(F)F)c3)ccc(C(=O)NCc3ccnc4ccccc34)c2C1 [Example 26, N^2-(tert-butyl)-N^8-(quinolin-4-ylmethyl)-5-(3-(trifluoromethyl)phenyl)-3,4-dihydroisoquinoline-2,8(1H)-dicarboxamide] | 292 |
| CC(C)(C)NC(=O)N1CCc2c(-c3cccc(C(F)(F)F)c3)ccc(C(=O)NCc3conc3C#N)c2C1 [Example 27, N^2-(tert-butyl)-N^8-((3-cyanoisoxazol-4-yl)methyl)-5-(3-(trifluoromethyl)phenyl)-3,4-dihydroisoquinoline-2,8(1H)-dicarboxamide] | 314 |
| CC(C)(C)NC(=O)N1CCc2c(-c3cccc(C(F)(F)F)c3)ccc(C(=O)NCCc3cscn3)c2C1 [Example 29, N^2-(tert-butyl)-N^8-(2-(thiazol-4-yl)ethyl)-5-(3-(trifluoromethyl)phenyl)-3,4-dihydroisoquinoline-2,8(1H)-dicarboxamide] | 329 |
| CC(C)(C)NC(=O)N1CCc2c(-c3cccc(C(F)(F)F)c3)ccc(C(=O)NCc3cnn4ccccc34)c2C1 [Example 30, N^2-(tert-butyl)-N^8-(pyrazolo[1,5-a]pyridin-3-ylmethyl)-5-(3-(trifluoromethyl)phenyl)-3,4-dihydroisoquinoline-2,8(1H)-dicarboxamide] | 351 |
| Cc1cc(C)n(CCNC(=O)c2ccc(-c3cccc(C(F)(F)F)c3)c3c2CN(C(=O)NC(C)(C)C)CC3)n1 [Example 31, N^2-(tert-butyl)-N^8-(2-(3,5-dimethyl-1H-pyrazol-1-yl)ethyl)-5-(3-(trifluoromethyl)phenyl)-3,4-dihydroisoquinoline-2,8(1H)-dicarboxamide] | 505 |
| Cc1sc(-c2ccccc2)nc1CNC(=O)c1ccc(-c2cccc(C(F)(F)F)c2)c2c1CN(C(=O)NC(C)(C)C)CC2 [Example 32, N^2-(tert-butyl)-N^8-((5-methyl-2-phenylthiazol-4-yl)methyl)-5-(3-(trifluoromethyl)phenyl)-3,4-dihydroisoquinoline-2,8(1H)-dicarboxamide] | 539 |
| CC(C)(C)NC(=O)N1CCc2c(-c3cccc(C(F)(F)F)c3)ccc(C(=O)NCCn3nnc4ccccc43)c2C1 [Example 34, N^8-(2-(1H-benzo[d][1,2,3]triazol-1-yl)ethyl)-N^2-(tert-butyl)-5-(3-(trifluoromethyl)phenyl)-3,4-dihydroisoquinoline-2,8(1H)-dicarboxamide] | 664 |
| CC(C)(C)NC(=O)N1CCc2c(-c3cccc(C(F)(F)F)c3)ccc(C(=O)NCc3n[nH]c4c3CCC4)c2C1 [Example 35, N^2-(tert-butyl)-N^8-((1,4,5,6-tetrahydrocyclopenta[c]pyrazol-3-yl)methyl)-5-(3-(trifluoromethyl)phenyl)-3,4-dihydroisoquinoline-2,8(1H)-dicarboxamide] | 727 |

More lines, now with the values ahead:

| IC50 [nM] | SMILES |
| --- | --- |
| 737 | CC(C)(C)NC(=O)N1CCc2c(-c3cccc(C(F)(F)F)c3)ccc(C(=O)NCC(c3ccccn3)N3CCOCC3)c2C1 (stereo not shown) [Example 36, N^2-(tert-butyl)-N^8-(2-morpholino-2-(pyridin-2-yl)ethyl)-5-(3-(trifluoromethyl)phenyl)-3,4-dihydroisoquinoline-2,8(1H)-dicarboxamide] |
| 739 | CC(C)(C)NC(=O)N1CCc2c(-c3cccc(C(F)(F)F)c3)ccc(C(=O)NCCn3nncc3-c3ccccc3)c2C1 [Example 37, N^2-(tert-butyl)-N^8-(2-(5-phenyl-1H-1,2,3-triazol-1-yl)ethyl)-5-(3-(trifluoromethyl)phenyl)-3,4-dihydroisoquinoline-2,8(1H)-dicarboxamide] |
| 854 | Cc1cc(C(F)(F)F)nc(CCNC(=O)c2ccc(-c3cccc(C(F)(F)F)c3)c3c2CN(C(=O)NC(C)(C)C)CC3)n1 [Example 38, N^2-(tert-butyl)-N^8-(2-(4-methyl-6-(trifluoromethyl)pyrimidin-2-yl)ethyl)-5-(3-(trifluoromethyl)phenyl)-3,4-dihydroisoquinoline-2,8(1H)-dicarboxamide] |
| 890 | CC(C)(C)NC(=O)N1CCc2c(-c3cccc(C(F)(F)F)c3)ccc(C(=O)NCc3scnc3-c3ccccc3)c2C1 [Example 39, N^2-(tert-butyl)-N^8-((4-phenylthiazol-5-yl)methyl)-5-(3-(trifluoromethyl)phenyl)-3,4-dihydroisoquinoline-2,8(1H)-dicarboxamide] |
| 905 | CC(C)(C)NC(=O)N1CCc2c(-c3cccc(C(F)(F)F)c3)ccc(C(=O)NCCc3ccccc3C(F)(F)F)c2C1 [Example 40, N^2-(tert-butyl)-N^8-(2-(trifluoromethyl)phenethyl)-5-(3-(trifluoromethyl)phenyl)-3,4-dihydroisoquinoline-2,8(1H)-dicarboxamide] |
| 907 | Cc1nc(C)c(CNC(=O)c2ccc(-c3cccc(C(F)(F)F)c3)c3c2CN(C(=O)NC(C)(C)C)CC3)s1 [Example 41, N^2-(tert-butyl)-N^8-((2,4-dimethylthiazol-5-yl)methyl)-5-(3-(trifluoromethyl)phenyl)-3,4-dihydroisoquinoline-2,8(1H)-dicarboxamide] |
| 959 | CC(C)(C)NC(=O)N1CCc2c(-c3cccc(C(F)(F)F)c3)ccc(C(=O)NCCc3ncn[nH]3)c2C1 [Example 42, N^8-(2-(1H-1,2,4-triazol-5-yl)ethyl)-N^2-(tert-butyl)-5-(3-(trifluoromethyl)phenyl)-3,4-dihydroisoquinoline-2,8(1H)-dicarboxamide] |
| 1140 | CC(C)(C)NC(=O)N1CCc2c(-c3cccc(C(F)(F)F)c3)ccc(C(=O)NCCN3CCCc4ccccc43)c2C1 [Example 43, N^2-(tert-butyl)-N^8-(2-(3,4-dihydroquinolin-1(2H)-yl)ethyl)-5-(3-(trifluoromethyl)phenyl)-3,4-dihydroisoquinoline-2,8(1H)-dicarboxamide] |
| 1200 | CC(CNC(=O)c1ccc(-c2cccc(C(F)(F)F)c2)c2c1CN(C(=O)NC(C)(C)C)CC2)n1cccn1 (stereo not shown) [Example 44, N^8-(2-(1H-pyrazol-1-yl)propyl)-N^2-(tert-butyl)-5-(3-(trifluoromethyl)phenyl)-3,4-dihydroisoquinoline-2,8(1H)-dicarboxamide] |

From US9877957B2, “Tetrahydroisoquinoline derivatives useful as inhibitors of diacylglyceride O-acyltransferase 2” (Merck Sharp & Dohme Corp., priority 2014, dated 2018)
